Results: PubChem BioAssay AID248 (DTP/NCI, 2004)
Several values for one entry are separate records, joined by “and”; a condition that tells them apart may be missing. Equal entries are not always repeated. Inconclusive results and toxic doses are left out. No stated cut-off is given here; in the data, active means T/C of 150% or more; inactive means T/C below 125%.

Tested on: L1210 leukemia ip in BDF1 mice, survival T/C
Assay: NCI In Vivo Anticancer Drug Screen. Data for tumor model L1210 Leukemia (intraperitoneal) in B6D2F1 (BDF1) mice
Conditions: endpoint: mean survival time, higher = longer survival
In short: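 Ratio derived from survival: compound-dosed mice over vehicle-dosed mice, all bearing a transplantable tumor.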

[1] = dose: 100.0 mg/kg/injection, schedule: Q01DX009 (ip), vehicle: saline
[2] = dose: 100.0 mg/kg/injection, schedule: Q04DX003 (ip), vehicle: saline
[3] = dose: 200.0 mg/kg/injection, schedule: Q01DX009 (ip), vehicle: saline
[4] = dose: 200.0 mg/kg/injection, schedule: Q04DX003 (ip), vehicle: saline
[5] = dose: 400.0 mg/kg/injection, schedule: Q04DX003 (ip), vehicle: saline
[6] = dose: 100.0 mg/kg/injection, schedule: Q04DX003 (ip), vehicle: saline with Tween-80
[7] = dose: 200.0 mg/kg/injection, schedule: Q04DX003 (ip), vehicle: saline with Tween-80
[8] = dose: 400.0 mg/kg/injection, schedule: Q04DX003 (ip), vehicle: saline with Tween-80
[9] = dose: 100.0 mg/kg/injection, schedule: Q01DX009 (ip), vehicle: saline with Tween-80
[10] = dose: 200.0 mg/kg/injection, schedule: Q01DX009 (ip), vehicle: saline with Tween-80
[11] = dose: 400.0 mg/kg/injection, schedule: Q01DX009 (ip), vehicle: saline with Tween-80
[12] = dose: 400.0 mg/kg/injection, schedule: Q01DX009 (ip), vehicle: saline
[13] = dose: 100.0 mg/kg/injection, schedule: Q01DX009 (ip), vehicle: Klucel (hydroxypropylcellulose) (HPC)
[14] = dose: 100.0 mg/kg/injection, schedule: Q04DX003 (ip), vehicle: Klucel (hydroxypropylcellulose) (HPC)
[15] = dose: 200.0 mg/kg/injection, schedule: Q01DX009 (ip), vehicle: Klucel (hydroxypropylcellulose) (HPC)
[16] = dose: 200.0 mg/kg/injection, schedule: Q04DX003 (ip), vehicle: Klucel (hydroxypropylcellulose) (HPC)
[17] = dose: 400.0 mg/kg/injection, schedule: Q01DX009 (ip), vehicle: Klucel (hydroxypropylcellulose) (HPC)
[18] = dose: 400.0 mg/kg/injection, schedule: Q04DX003 (ip), vehicle: Klucel (hydroxypropylcellulose) (HPC)
[19] = dose: 100.0 mg/kg/injection, schedule: Q01DX001 (ip), vehicle: saline
[20] = dose: 200.0 mg/kg/injection, schedule: Q01DX001 (ip), vehicle: saline
[21] = dose: 400.0 mg/kg/injection, schedule: Q01DX001 (ip), vehicle: saline
[22] = dose: 100.0 mg/kg/injection, schedule: Q01DX001 (ip), vehicle: carboxymethylcellulose (CMC)
[23] = dose: 200.0 mg/kg/injection, schedule: Q01DX001 (ip), vehicle: carboxymethylcellulose (CMC)
[24] = dose: 400.0 mg/kg/injection, schedule: Q01DX001 (ip), vehicle: carboxymethylcellulose (CMC)

Measured: T/C

C#CCN(C)Cc1ccccc1
inactive: dose: 25.0 mg/kg/injection, schedule: Q01DX009 (ip), vehicle: saline 94 % of control | dose: 50.0 mg/kg/injection, schedule: Q01DX009 (ip), vehicle: saline 89 % of control | [1] 87 % of control | [2] 103 % of control | [3] 98 % of control | [4] 103 % of control | [5] 97 % of control

c1ccc([Si](c2ccccc2)(c2ccccc2)c2cccs2)cc1
inactive: [6] 93 % of control | [7] 90 % of control | [8] 88 % of control

Cc1ccc(S(=O)(=O)N2CCC(C(=O)O)(c3ccccc3)CC2)cc1
inactive: [9] 117 % of control | [10] 101 % of control | [11] 95 % of control

CC12CCC(O)CC1CCC1C3CC/C(=C\c4ccco4)C(=O)C3CCC12 (stereo not given)
inactive: dose: 50.0 mg/kg/injection, schedule: Q01DX001 (sc), vehicle: steriod suspending solution 105 % of control | dose: 100.0 mg/kg/injection, schedule: Q01DX001 (sc), vehicle: steriod suspending solution 89 % of control | dose: 200.0 mg/kg/injection, schedule: Q01DX001 (sc), vehicle: steriod suspending solution 91 % of control

O=C1C2C3CCC(O3)C2C(=O)N1CSc1nc2ccccc2s1 (stereo not given)
inactive: dose: 100.0 mg/kg/injection, schedule: Q01DX001 (ip), vehicle: saline with Tween-80 96 % of control | dose: 200.0 mg/kg/injection, schedule: Q01DX001 (ip), vehicle: saline with Tween-80 90 % of control | dose: 400.0 mg/kg/injection, schedule: Q01DX001 (ip), vehicle: saline with Tween-80 95 % of control

CCN(CC)C(=O)Cn1ccc(NC(C)=O)nc1=O
inactive: [1] 104 % of control | [2] 106 % of control | [3] 98 % of control | [4] 113 % of control | [12] 98 % of control | [5] 111 % of control

CSc1ccc(NC(=O)C(O)C(O)C(O)C(O)CO)cc1 (stereo not given)
inactive: [6] 89 % of control | [7] 100 % of control | [8] 95 % of control

NCC1CC2CCC1C2 (stereo not given)
inactive: [1] 90 % of control | [2] 101 % of control | [3] 90 % of control | [4] 103 % of control | [5] 103 % of control

CCOC(=O)C(CC(C)C)NC(=O)c1ccc(C)c2c1Nc1c(c(C)c3oc(=O)c(C)nc3c1C(=O)NC(CC(C)C)C(=O)OCC)O2 (stereo not given)
inactive: dose: 75.0 mg/kg/injection, schedule: Q01DX001 (ip), vehicle: other 91 % of control | dose: 150.0 mg/kg/injection, schedule: Q01DX001 (ip), vehicle: other 86 % of control | dose: 300.0 mg/kg/injection, schedule: Q01DX001 (ip), vehicle: other 88 % of control

O=C(Nc1cc([N+](=O)[O-])ccc1Cl)SCc1ccccc1
inactive: [9] 102 % of control | [10] 98 % of control | [11] 102 % of control

CCOC(=O)c1cnc(C)nc1C
inactive: [1] 95 % of control | [2] 103 % of control | [3] 100 % of control | [4] 98 % of control | [12] 95 % of control | [5] 98 % of control

CC(O)COc1ccc(OCc2ccccc2)cc1 (stereo not given)
inactive: [13] 98 % of control | [14] 106 % of control | [15] 95 % of control | [16] 100 % of control | [17] 97 % of control | [18] 92 % of control

O=P(Nc1ccccc1)(Nc1ccccc1)Nc1ccccc1
inactive: dose: 50.0 mg/kg/injection, schedule: Q04DX002 (ip), vehicle: gum acacia 95 % of control | dose: 100.0 mg/kg/injection, schedule: Q01DX009 (ip), vehicle: gum acacia 100 % of control | dose: 100.0 mg/kg/injection, schedule: Q04DX002 (ip), vehicle: gum acacia 95 % of control | dose: 200.0 mg/kg/injection, schedule: Q01DX009 (ip), vehicle: gum acacia 97 % of control | dose: 200.0 mg/kg/injection, schedule: Q04DX002 (ip), vehicle: gum acacia 92 % of control | dose: 400.0 mg/kg/injection, schedule: Q01DX009 (ip), vehicle: gum acacia 89 % of control

S=c1ssc2ccccc12
inactive: dose: 50.0 mg/kg/injection, schedule: Q04DX003 (ip), vehicle: saline 100 % of control | [19] 94 % of control and 96 % of control | [2] 97 % of control | [20] 94 % of control and 101 % of control | [4] 97 % of control | [21] 98 % of control

CCCCCCCCCCCCCCCCN(C(C)C)S(=O)(=O)c1ccc(Cl)c(N)c1
inactive: [1] 89 % of control | [14] 98 % of control | [3] 89 % of control | [16] 96 % of control | [12] 102 % of control | [18] 89 % of control

O=c1[nH]c2nc3ccccc3nc2c(=O)n1O
inactive: [13] 100 % of control | [15] 105 % of control

N#Cc1ccc(CC(O)(c2ccccc2)c2ccccc2)cc1
inactive: dose: 50.0 mg/kg/injection, schedule: Q01DX001 (ip), vehicle: carboxymethylcellulose (CMC) 106 % of control | [22] 101 % of control | [23] 98 % of control | [24] 89 % of control

C[Si](C)(C)Cc1ccc(F)cc1
inactive: dose: 25.6 mg/kg/injection, schedule: Q04DX002 (ip), vehicle: saline with Tween-80 90 % of control | dose: 64.0 mg/kg/injection, schedule: Q04DX002 (ip), vehicle: saline with Tween-80 93 % of control | [6] 93 % of control | dose: 160.0 mg/kg/injection, schedule: Q04DX002 (ip), vehicle: saline with Tween-80 97 % of control | [7] 97 % of control | dose: 400.0 mg/kg/injection, schedule: Q04DX002 (ip), vehicle: saline with Tween-80 97 % of control | [8] 93 % of control

Nc1c(S(=O)(=O)O)cc(Nc2cccc(CO)c2)c2c1C(=O)c1ccccc1C2=O
inactive: dose: 5.0 mg/kg/injection, schedule: Q01DX001 (ip), vehicle: saline 105 % of control | dose: 10.0 mg/kg/injection, schedule: Q01DX001 (ip), vehicle: saline 103 % of control | dose: 20.0 mg/kg/injection, schedule: Q01DX001 (ip), vehicle: saline 101 % of control | dose: 40.0 mg/kg/injection, schedule: Q01DX001 (ip), vehicle: saline 94 % of control | dose: 80.0 mg/kg/injection, schedule: Q01DX001 (ip), vehicle: saline 95 % of control | [19] 95 % of control | [2] 101 % of control | [20] 93 % of control | [4] 104 % of control | [5] 92 % of control

O=C(O)c1ccccc1C(=O)OC1CCCC2CCCC21 (stereo not given)
inactive: [22] 95 % of control and 96 % of control | [23] 101 % of control and 98 % of control | [24] 90 % of control and 98 % of control

O=C(/C=N/O)Nc1cc(Cl)c(Cl)cc1Cl
inactive: dose: 50.0 mg/kg/injection, schedule: Q01DX009 (ip), vehicle: saline with Tween-80 97 % of control | [9] 94 % of control | [6] 98 % of control | [10] 94 % of control | [7] 103 % of control

Cc1ccc(CN2C(=O)C=CC2=O)cc1
inactive: dose: 12.5 mg/kg/injection, schedule: Q04DX002 (ip), vehicle: Klucel (hydroxypropylcellulose) (HPC) 102 % of control | dose: 25.0 mg/kg/injection, schedule: Q04DX002 (ip), vehicle: Klucel (hydroxypropylcellulose) (HPC) 102 % of control

COc1ccc(/C=C2\N=C(c3ccco3)OC2=O)cc1Br
inactive: [13] 94 % of control | [15] 94 % of control | [17] 91 % of control

O=[N+]([O-])c1sc2ccccc2c1/C=C/c1csc2ccccc12
inactive: [19] 87 % of control | [20] 91 % of control | [21] 97 % of control

CC[N+](CC)(CC)CCCCC[N+](CC)(CC)CC
inactive: dose: 12.5 mg/kg/injection, schedule: Q01DX009 (ip), vehicle: water 106 % of control | dose: 25.0 mg/kg/injection, schedule: Q01DX009 (ip), vehicle: water 101 % of control | dose: 25.0 mg/kg/injection, schedule: Q04DX003 (ip), vehicle: saline with Tween-80 94 % of control | dose: 50.0 mg/kg/injection, schedule: Q04DX003 (ip), vehicle: saline with Tween-80 94 % of control

O=C(Nc1ccccc1F)Oc1cccc2ccccc12
inactive: [9] 113 % of control | [10] 109 % of control | [11] 87 % of control
